From patent US20240131032A1, “AN ACTIVITY-GUIDED MAP OF ELECTROPHILE-CYSTEINE INTERACTIONS IN PRIMARY HUMAN IMMUNE CELLS” (The Scripps Research Institute, priority 2019, published 2024)

Columns and labels:
Format in all cases: binding
ERCC3 = target: T1, ERCC3 (Homo sapiens, UniProt P19447); experiment: isoTOP-ABPP and TMT-ABPP cysteine engagement, ERCC3
T1 construct: endogenous in cells; host or cells: primary human T cells
T1 sequence (P19447 1-782): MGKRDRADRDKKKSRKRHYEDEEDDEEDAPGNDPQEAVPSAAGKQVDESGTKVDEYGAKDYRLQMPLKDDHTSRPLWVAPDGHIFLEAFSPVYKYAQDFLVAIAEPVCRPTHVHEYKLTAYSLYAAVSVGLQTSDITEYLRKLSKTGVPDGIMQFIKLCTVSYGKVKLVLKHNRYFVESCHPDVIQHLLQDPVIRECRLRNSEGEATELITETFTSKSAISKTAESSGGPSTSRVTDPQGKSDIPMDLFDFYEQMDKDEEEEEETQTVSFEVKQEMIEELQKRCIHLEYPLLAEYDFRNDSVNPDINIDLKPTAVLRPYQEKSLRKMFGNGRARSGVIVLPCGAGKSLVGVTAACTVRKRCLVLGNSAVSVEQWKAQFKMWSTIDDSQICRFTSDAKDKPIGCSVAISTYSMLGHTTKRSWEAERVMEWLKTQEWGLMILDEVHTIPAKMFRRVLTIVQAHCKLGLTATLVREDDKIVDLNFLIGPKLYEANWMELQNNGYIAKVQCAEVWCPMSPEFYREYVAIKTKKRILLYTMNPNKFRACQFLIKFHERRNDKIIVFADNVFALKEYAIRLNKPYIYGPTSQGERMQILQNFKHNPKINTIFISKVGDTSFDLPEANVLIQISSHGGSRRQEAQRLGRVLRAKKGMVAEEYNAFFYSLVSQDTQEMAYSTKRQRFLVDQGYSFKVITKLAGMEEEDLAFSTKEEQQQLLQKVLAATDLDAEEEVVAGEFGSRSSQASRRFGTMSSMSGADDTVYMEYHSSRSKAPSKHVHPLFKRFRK
Procedure: (§1) Activated or expanded T cells were re-suspended in RPMI media supplemented with 10% FBS, L-glutamine (2 mM), penicillin (100 U/mL), and streptomycin (100 μg/mL) at 2×10^6 cells/mL. The compounds were added to cells as 1000×DMSO stocks and mixed well with the media by pipetting up and down after addition. The cells were kept at 37° C. in 5% CO2 containing incubators for 3 h (or otherwise specified times), then pelleted by centrifugation (524 g, 5 min, 4° C.), washed with cold PBS (10 mL) and transferred to Eppendorf tubes (1 mL PBS). The cells were pelleted again (524 g, 5 min, 4° C.), flash-frozen, and kept at −80° C. until further analysis.
Activated or expanded primary human T cells were re-suspended in RPMI (1×10^6 cells/mL) containing 10% fetal bovine serum (FBS), penicillin (100 U/mL), streptomycin ([…]), and L-glutamine (2 mM). The cells were treated with DMSO or compounds for 3 h, pelleted (524 g, 5 min), washed with PBS, and lysed by sonication (2×8 pulses). Soluble and particulate proteomic fractions were separated by ultracentrifugation (100,000 g, 45 min), and protein concentration was normalized to 1.7 mg/mL using a standard DC protein assay (Bio-Rad). The resulting proteomes were analyzed by competitive isotopic Tandem Orthogonal Proteolysis Activity-Based Protein Profiling (isoTOP-ABPP).
Samples (500 μL, 1.7 mg/mL) were treated with iodoacetamide alkyne (IA-alkyne, 5 μL of 10 mM stock in DMSO, final concentration: 100 μM) for 1 h at ambient temperature. Modified proteins were then conjugated to isotopically labeled, TEV-cleavable biotin tags (TEV-tags) using copper-catalyzed azide-alkyne cycloaddition reaction (CuAAC). Reagents for the CuAAC reaction were pre-mixed prior to their addition to the proteome samples. […]
The heavy/light isoTOP-ABPP ratios (R values) for each unique peptide (DMSO/compound treated) were quantified with in-house CIMAGE software (Weerapana et al., 2010) using default parameters (3 MS1 acquisitions per peak and signal to noise threshold set to 2.5). Site-specific engagement of cysteine residues was assessed by blockade of IA-alkyne probe labeling. […] Ratios for unique peptide sequences were calculated for each experiment; overlapping peptides with the same modified cysteine (e.g., different charge states, elution times or tryptic termini) were grouped together and the median ratio was reported as the final ratio (R). […]

TMEM173 = target: T2, TMEM173 (Homo sapiens, UniProt Q86WV6); experiment: isoTOP-ABPP and TMT-ABPP cysteine engagement, TMEM173
T2 construct: endogenous in cells; host or cells: primary human T cells
Procedure: as §1
(§2) Activated or expanded primary human T cells were re-suspended in RPMI (1×10^6 cells/mL) containing 10% fetal bovine serum (FBS), penicillin (100 U/mL), streptomycin ([…]), and L-glutamine (2 mM). […] The resulting proteomes were analyzed by competitive isotopic Tandem Orthogonal Proteolysis Activity-Based Protein Profiling (isoTOP-ABPP). […]
(§3) The heavy/light isoTOP-ABPP ratios (R values) for each unique peptide (DMSO/compound treated) were quantified with in-house CIMAGE software (Weerapana et al., 2010) using default parameters (3 MS1 acquisitions per peak and signal to noise threshold set to 2.5). Site-specific engagement of cysteine residues was assessed by blockade of IA-alkyne probe labeling. […]

BIRC2 = BIRC2 (Homo sapiens, UniProt Q13490); experiment: isoTOP-ABPP and TMT-ABPP cysteine engagement, BIRC2; set-up: endogenous in cells; host or cells: primary human T cells
Procedure: as §1, §2, §3

BIRC2, sequence (Q13490 whole entry): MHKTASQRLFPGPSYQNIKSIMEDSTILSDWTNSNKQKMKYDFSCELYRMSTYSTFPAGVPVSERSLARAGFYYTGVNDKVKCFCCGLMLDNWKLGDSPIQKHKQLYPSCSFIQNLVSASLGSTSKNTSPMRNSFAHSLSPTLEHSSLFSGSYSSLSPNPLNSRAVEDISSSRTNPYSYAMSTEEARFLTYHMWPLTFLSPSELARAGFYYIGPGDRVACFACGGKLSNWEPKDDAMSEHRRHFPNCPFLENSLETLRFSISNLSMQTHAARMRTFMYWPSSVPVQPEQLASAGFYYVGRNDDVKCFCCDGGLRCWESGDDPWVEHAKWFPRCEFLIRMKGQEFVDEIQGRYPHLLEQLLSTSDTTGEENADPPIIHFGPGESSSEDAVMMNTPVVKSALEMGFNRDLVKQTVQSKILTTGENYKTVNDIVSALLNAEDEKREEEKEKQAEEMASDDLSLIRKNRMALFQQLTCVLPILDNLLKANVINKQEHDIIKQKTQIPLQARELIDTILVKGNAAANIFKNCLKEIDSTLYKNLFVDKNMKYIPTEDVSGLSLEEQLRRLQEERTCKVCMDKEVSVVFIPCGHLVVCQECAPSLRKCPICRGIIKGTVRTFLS
T2 sequence (Q86WV6 whole entry H232R): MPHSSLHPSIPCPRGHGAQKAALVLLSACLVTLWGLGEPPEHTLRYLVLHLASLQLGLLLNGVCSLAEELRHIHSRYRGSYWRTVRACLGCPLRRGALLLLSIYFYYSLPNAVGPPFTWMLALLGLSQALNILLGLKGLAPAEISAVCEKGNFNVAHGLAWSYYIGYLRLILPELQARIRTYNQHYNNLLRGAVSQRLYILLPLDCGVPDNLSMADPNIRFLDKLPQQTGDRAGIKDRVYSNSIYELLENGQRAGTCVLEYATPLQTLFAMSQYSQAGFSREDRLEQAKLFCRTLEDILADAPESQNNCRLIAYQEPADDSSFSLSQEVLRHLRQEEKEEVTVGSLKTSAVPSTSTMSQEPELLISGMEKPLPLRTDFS

Structure (SMILES) | efficacy at ERCC3 C342, BPK-21 with respect to BPK-25 (ERCC3) | engagement of C342 of ERCC3 (ERCC3) | labeling of C91 of TMEM173 (TMEM173) | engagement of C45 of BIRC2 (BIRC2)
C=CC(=O)N(Cc1cccc(Cl)c1Cl)c1ccc(Oc2ccccc2)c(C(F)(F)F)c1 [BPK-21] | higher efficacy | alkylating C342 | direct labeling of C91 | –
C=CC(=O)N(Cc1cccc(Cl)n1)c1ccc(C(=O)Nc2ccccc2)nc1 [BPK-25] | – | alkylating C342 | direct labeling of C91 | –
COC(=O)/C=C/C(=O)OC [DMF, reference compound] | – | – | – | engaged
O=C(CCl)N1CCN(S(=O)(=O)c2ccc(-c3ccncc3)cc2)CC1 [EV-3] | – | – | – | engaged
